The results in this text go back to paper PMC5713445, “Ergostane-Type Sterols from King Trumpet Mushroom (Pleurotus eryngii) and Their Inhibitory Effects on Aromatase” (International Journal of Molecular Sciences, 2017).

A value given as a limit tells only on which side of the number the result lay.

For the assay, the target named is T1, human recombinant aromatase (Homo sapiens, UniProt P11511).
T1 sequence (P11511 1-503): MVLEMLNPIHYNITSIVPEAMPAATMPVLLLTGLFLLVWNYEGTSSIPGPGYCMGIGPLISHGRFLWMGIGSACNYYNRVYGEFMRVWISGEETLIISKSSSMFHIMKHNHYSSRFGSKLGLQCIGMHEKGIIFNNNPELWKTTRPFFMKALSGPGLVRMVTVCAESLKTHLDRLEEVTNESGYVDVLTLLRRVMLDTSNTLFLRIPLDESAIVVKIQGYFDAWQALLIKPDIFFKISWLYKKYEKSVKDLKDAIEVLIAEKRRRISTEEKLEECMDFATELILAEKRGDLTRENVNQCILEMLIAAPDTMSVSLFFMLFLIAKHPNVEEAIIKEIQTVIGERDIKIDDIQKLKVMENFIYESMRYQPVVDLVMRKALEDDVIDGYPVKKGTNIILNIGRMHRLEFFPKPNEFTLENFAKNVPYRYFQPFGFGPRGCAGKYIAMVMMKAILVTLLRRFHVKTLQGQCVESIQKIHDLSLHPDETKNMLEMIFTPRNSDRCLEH
Kind of assay: Inhibitory assay against human recombinant aromatase (Human CYP19 + P450 Reductase SUPERSOMES, dibenzylfluorescein). Format: biochemical. Particulars: for aromatase inhibitory activity (in words): tested at 10, 30 and 100 µM (4, 6: 1, 3 and 10 µM); for IC50: three determinations. From the text: Each value represents the mean ± the standard error (S.E.) of three determinations.
Dibenzylfluorescein (DBF) and Human CYP19 + P450 Reductase SUPERSOMES (human recombinant aromatase) were obtained from BD Biosciences (Heidelberg, Germany). The physical data were obtained by the following instruments: a Yanagimoto micro-melting point apparatus for melting points (uncorrected); a JASCO DIP-1000 digital polarimeter for Optical rotations; a Perkin-Elmer 1720X FTIR spectrophotometer for IR spectra; an Agilent-NMR-vnmrs600 for the ^1H and ^13C NMR spectra (^1H: 600 MHz; ^13C: 150 MHz) in CDCl3 with tetramethylsilane as the internal standard; a Hitachi M-4000H double-focusing mass spectrometer for EIMS (70 eV). Column chromatography was carried out by Silica gel (70–230 mesh, Merck, Darmstadt, Germany) and silica gel 60 (230–400 mesh, Nacalai Tesque, Inc., Kyoto, Japan). HPLC was performed by the following systems; system I: Cosmosil 5SL-II column (25 cm × 20 mm i.d.) (Nacalai Tesque, Inc.), hexane/EtOAc (5:1), 8.0 mL/min, 35 °C; system II: Shimpack PREP-ODS (25 cm × 20 mm i.d.) (Shimadzu corp., Kyoto, Japan), MeOH, 8.0 mL/min, 35 °C; system III: Cosmosil 5C18-MS-II column (25 cm × 20 mm i.d.) (Nacalai Tesque, Inc.), MeOH/H2O (95:5), flow rate, 4.0 mL/min, 35 °C; system IV: Cosmosil 5C18-MS-II column, MeOH/H2O (9:1), 4.0 mL/min, 35 °C.
Inhibitory assay against human recombinant aromatase was performed as described previously.

For the molecule “5α,6α-epoxyergost-8(14)-ene-3β,7α-diol [Compound 2]”, the “aromatase inhibitory activity (in words)” value is listed as “weakly inhibited aromatase”.

In the case of `CC(C)[C@@H](C)/C=C/[C@@H](C)[C@H]1CC=C2C3=C(CC[C@@]21C)[C@@]1(C)CC[C@H](O)C[C@@]12O[C@H]2[C@@H]3O` [Compound 1, (22E)-5α,6α-epoxyergosta-8,14,22-triene-3β,7β-diol], the IC50 (commonly the point on the concentration scale where inhibition reaches its midpoint) was 17.3 µM.

`CC(C)[C@@H](C)/C=C/[C@@H](C)[C@H]1CC[C@H]2C3=CCC4C[C@@H](O)CC[C@]4(C)[C@H]3CC[C@]12C` (stereo partly drawn) [Compound 3, (22E)-Ergosta-7,22-dien-3β-ol]: the IC50 is 66.1 µM.

Consider `CC(C)[C@@H](C)/C=C/[C@@H](C)[C@H]1CC[C@H]2C3=CC=C4C[C@@H](O)CC[C@]4(C)[C@H]3CC[C@]12C` [Compound 4, (22E)-ergosta-5,7,22-trien-3β-ol], for which the “aromatase inhibitory activity (in words)” value was “comparable aromatase inhibitory activities to aminoglutethimide” and the IC50 stood at 8.1 µM.

Turning to `CC(C)[C@@H](C)/C=C/[C@@H](C)[C@H]1CC[C@H]2c3ccc4c(c3CC[C@]12C)CC[C@H](O)C4` [Compound 5, (22E)-19-norergosta-5,7,9,22-tetraen-3β-ol], the half-inhibitory concentration (IC50) came out at 33.8 µM.

Consider `CO[C@@H]1C=C2[C@@H]3CC[C@H]([C@H](C)/C=C/[C@H](C)C(C)C)[C@@]3(C)CC[C@@H]2[C@@]2(C)CC[C@H](O)C[C@]12O` [Compound 6, (22E)-6β-methoxyergosta-7,22-diene-3β,5α-diol], for which the “aromatase inhibitory activity (in words)” value was “comparable aromatase inhibitory activities to aminoglutethimide” and the concentration for half-maximal inhibition (IC50) stood at 2.8 µM.

With `CC(C)[C@@H](C)/C=C/[C@@H](C)[C@H]1CC[C@H]2C3=CC(=O)[C@@]4(O)C[C@@H](O)CC[C@]4(C)[C@@]3(O)CC[C@]12C` [Compound 7, (22E)-3β,5α,9α-trihydroxyergosta-7,22-dien-6-one], the “aromatase inhibitory activity (in words)” value was “weakly inhibited aromatase” and the IC50 was more than 100 µM.

For the molecule `CC(C)[C@@H](C)/C=C/[C@@H](C)[C@H]1CC[C@H]2C3=CC(=O)[C@@]4(O)C[C@@H](O)CC[C@]4(C)[C@H]3CC[C@]12C` [Compound 8, (22E)-3β,5α-dihydroxyergosta-7,22-dien-6-one], the “aromatase inhibitory activity (in words)” value is reported as “weakly inhibited aromatase” and the half-maximal inhibitory concentration (IC50) was more than 100 µM.

`CC(C)[C@@H](C)/C=C/[C@@H](C)[C@H]1CC[C@@H]2[C@]1(C)CC[C@H]1[C@]23C=C[C@]2(C[C@@H](O)CC[C@]12C)OO3` [Compound 9, ergosterol peroxide]: the “aromatase inhibitory activity (in words)” value is reported as “weakly inhibited aromatase” and the IC50 was more than 100 µM.

For `CC(C)[C@@H](C)/C=C/[C@@H](C)[C@H]1CC[C@@H]2[C@]1(C)CC=C1[C@]23C=C[C@]2(C[C@@H](O)CC[C@]12C)OO3` [Compound 10, 9,11-dehydroergosterol peroxide], the IC50 was found to be 32.6 µM.
